Results: publication PMC5711809, “Bayesian Analysis of MicroScale Thermophoresis Data to Quantify Affinity of Protein:Protein Interactions with Human Survivin” (Scientific Reports, 2017)

Biological target: T1, human survivin (human, UniProt O15392 1-142, GREEN-MALEIMIDE (cysteine reactive) fluorescent label, in the MST experiments only)
T1 construct: survivin, human, 16 kDa; The His tag is detected on the array by a 6X His Tag antibody; for the MST no cleavage of the tag is told; On the array the protein was unlabelled, in the MST labelled on cysteine; source: E. coli BL21(DE3) star, purified (Ni2+ chelation chromatography, gel filtration)
T1 sequence (O15392 whole entry): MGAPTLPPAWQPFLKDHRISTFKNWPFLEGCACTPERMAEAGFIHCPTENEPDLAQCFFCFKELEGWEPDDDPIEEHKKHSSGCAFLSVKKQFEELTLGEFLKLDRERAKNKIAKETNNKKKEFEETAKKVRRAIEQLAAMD
Assay: peptide or protein array; PEPperCHIP microarray of overlapping printed peptides; incubated with survivin at 1, 10 and 100 µg/ml in incubation buffer; detected with 6X His Tag Antibody DyLight680
Conditions: both partners purified

Molecule | binding result
KVNKMTSKSKKRKTS (human Shugoshin-like 2 (hSgol2), 15-mer of the overlapping peptide array; source: laser-printed on the PEPperCHIP peptide microarray (PEPperPRINT)) [hSgol2 array peptide KVNKMTSKSKKRKTS] | binds
RKANRRKSKRMSKYK (human Shugoshin-like 1 (hSgol1), 15-mer of the overlapping peptide array; source: laser-printed on the PEPperCHIP peptide microarray (PEPperPRINT)) [hSgol1 array peptide RKANRRKSKRMSKYK] | binds
KREEKRKANRRKSKR (human Shugoshin-like 1 (hSgol1), 15-mer of the overlapping peptide array; source: laser-printed on the PEPperCHIP peptide microarray (PEPperPRINT)) [hSgol1 array peptide KREEKRKANRRKSKR] | binds
ECQVKKVNKMTSKSK (human Shugoshin-like 2 (hSgol2), 15-mer of the overlapping peptide array; source: laser-printed on the PEPperCHIP peptide microarray (PEPperPRINT)) [hSgol2 array peptide ECQVKKVNKMTSKSK] | binds

Biological target: T2, human survivin (Homo sapiens, UniProt O15392)
T2 construct: His8 (pHIS8 vector); made in house; host or cells: E. coli BL21(DE3) star
T2 sequence (O15392 whole entry): as above
Assay: PEPperCHIP peptide microarray, survivin binding to laser printed overlapping peptides
Conditions: survivin 1, 10 and 100 μg/ml; secondary 6X His Tag Antibody DyLight680 antibody; fluorescence, LI-COR Odyssey; duplicate spots
Protocol: We tested the Bayesian inference method on potential binding interactions of survivin identified by PEPperCHIP Peptide Microarray (PEPperPRINT, GmbH, Heidelberg, Germany). These microarrays consisted of overlapping peptides originating from candidate proteins from the human proteome including hSgol1, hSgol2 and the N-terminal region of borealin (1–93). The peptides were generated by peptide laser printing[25] (Fig. 2). […] The spots are consistently visible at 1, 10 and 100 μg/ml survivin concentrations in the assay buffer (Fig. 2). Quantitative analysis of the fluorescent intensities of the specific and control antibodies for borealin, hSgo1l and hSgol2 are shown in Supplementary Fig. S1, S2 and S3, respectively.
Pre-staining of one of the PEPperCHIP® Peptide Microarrays was done with the secondary 6X His Tag Antibody DyLight680 antibody at a dilution of 1:1000 and with monoclonal anti-HA (12CA5)-DyLight800 control antibody at a dilution of 1:1000 to investigate background interactions with the protein-derived peptides that could interfere with the main assays. Subsequent incubation of other peptide microarray copies with survivin at concentrations of 1 µg/ml, 10 µg/ml and 100 µg/ml in incubation buffer was followed by staining with the secondary 6X His Tag Antibody DyLight680 (Rockland Immunochemicals) antibody and the monoclonal anti-HA (12CA5)-DyLight800 control antibody (Rockland Immunochemicals) as well as by read-out at scanning intensities of 7/7 (red/green). HA and His tag control peptides were simultaneously stained as internal quality control to confirm the assay quality and to facilitate grid alignment for data quantification. Read-out was performed with a LI-COR Odyssey Imaging System, while quantification of spot intensities and peptide annotation were done with PepSlide® Analyzer.

Molecule | microarray response to survivin (spot signal)
DTQERKREEKRKANR [adjacent hSgol1 peptide, laser printed on microarray] | to some extent
ECQVKKVNKMTSKSK [hSgol2 peptide, laser printed on microarray] | main responses with the clearest spot morphologies
EVSKIVTVSTGIKKK [other basic peptide on the microarray] | did not react with survivin in a similar manner
HQSSFLLSASKKKRI [other basic peptide on the microarray] | did not react with survivin in a similar manner
KREEKRKANRRKSKR [basic hSgol1 peptide, laser printed on microarray] | main responses with the clearest spot morphologies
KTFRKVKDSSSEKKR [other basic peptide on the microarray] | did not react with survivin in a similar manner
KVNKMTSKSKKRKTS [hSgol2 peptide, laser printed on microarray] | main responses with the clearest spot morphologies
RKANRRKSKRMSKYK [basic hSgol1 peptide, laser printed on microarray] | main responses with the clearest spot morphologies
SPTDPKACNWKKYKF [other basic peptide on the microarray] | did not react with survivin in a similar manner
